Experimental data from patent US5773573A, “HIV peptides” (priority 1994, dated 1998).
Residues, ends and D or L forms follow the SMILES beside them.

How the values were obtained:
[1] = tested on: autologous PHA T cell blasts; test: Cytotoxicity Assay (51Cr release) of peptide-induced short-term PBMC cultures against autologous targets; assay type: cell-based, human; conditions: for autoreactive response (autocytotoxic, 51Cr release): peptide stimulant 100 ng/ml 4-8 hours
Experimental: (§1) Peripheral Blood Mononuclear Cells (PBMC) were isolated from 8 HIV seronegative individuals who volunteered as donors for the study. […] PBMC (10^6 /ml) from the each of the donors were incubated in the presence of VHP1 or control peptide at 100 ng/ml for 4-8 hours to produce Effector Cells. Irradiated autologous PBMC without VHP1 stimulation served as controls.
(§2) VHP1 induced short-term cultures of autoreactive T cells (Effector Cells) were assayed for cytotoxic activity against autologous PHA T cell blasts stimulated with 5 μg/ml PHA for 4-5 days at a concentration of 10^4 cells/well in the absence of either control or VHP1 peptide (Target Cells). 1-2×10^6 Target Cells were labeled with […] of ^51 Cr in 0.3 ml of medium for 1 hour at 37° C. Target cells were washed 3× in medium, diluted to 10^5 or 10^4 cells/ml and […] of cell suspension added to each well of a V-bottomed 96-well microtitre plate. Effector Cells were added to the Target Cells at Effector:Target (E:T) ratios from 50:1 to 6.25:1. Cultures were incubated for 4 hours at 37° C. and supernatants were harvested and counted for ^51 Cr release. Percent cytotoxicity is calculated using the formula : […] (experimental release-spontaneous release)/(maximum release-spontaneous release). Spontaneous release and maximum release were determined by incubating target cells in medium or 1.0% Triton ×-100 respectively. Results where calculated as means ± Standard Deviations (SD) of triplicate cultures and a positive result was scored above 20% specific lysis. The cytotoxicity assay was repeated for allogeneic Target cells from donors (Target-1, Target-2 and Target-3) and the percent specific lysis scored at an Effector:Target ratio of 10:1.

[2] = tested on: allogeneic PHA activated T cell Targets; test: Cytotoxicity Assay (51Cr release) of VHP1-induced Effectors against allogeneic targets; assay type: cell-based, human
Experimental: as §1, §2
To establish the MHC specificity of the cytotoxic cells stimulated by VHP1, further Cytotoxicity Assays with allogeneic PHA activated T cell Targets with different MHC phenotypes were then performed. The Effectors were derived from short term cultures of PBMC from donors of either MHC B8 or B35 (trigger+) incubated with VHP1 for 4-8 hours. The Target Cells were from donors with either B8 B35 (trigger+) or B27(Trigger-) MHC phenotype. Target PBMC incubated with radioactive ^51 Cr for one hour before being mixed with Effectors. Effector Cells were mixed with radiolabelled Target Cells and incubated for 4 hours and lysis was measured by release of radioactive ^51 Cr.
The measurement of percent specific lysis by ^51 Cr release at an Effector to Target Ratio of 10:1.

[3] = short term cultures of PBMC from donors positive for B8 or B35 (trigger+)

| Compound | autoreactive response (autocytotoxic, 51Cr release) ([1]; PBMC of donor eight (Trigger+)) | autoreactive response (autocytotoxic, 51Cr release) ([1]; PBMC of donor five (Trigger+)) | autoreactive response (autocytotoxic, 51Cr release) ([1]; PBMC of donor four (Trigger-)) | autoreactive response (autocytotoxic, 51Cr release) ([1]; PBMC of donor nine (Trigger-)) | autoreactive response (autocytotoxic, 51Cr release) ([1]; PBMC of donor one (Trigger-)) | autoreactive response (autocytotoxic, 51Cr release) ([1]; PBMC of donor seven (Trigger+)) | autoreactive response (autocytotoxic, 51Cr release) ([1]; PBMC of donor six (Trigger+)) | autoreactive response (autocytotoxic, 51Cr release) ([1]; PBMC of donor two (Trigger-)) | autocytotoxic responses against activated autologous T cell targets [1, 3] | percent specific lysis by 51Cr release ([2]; VHP1-induced Effectors JMC-B8, Target1-B8, Effector to Target Ratio 10:1) [%] | percent specific lysis by 51Cr release ([2]; VHP1-induced Effectors JMC-B8, Target2-B35, Effector to Target Ratio 10:1) [%] | percent specific lysis by 51Cr release ([2]; VHP1-induced Effectors JMC-B8, Target3-B27, Effector to Target Ratio 10:1) [%] | percent specific lysis by 51Cr release ([2]; VHP1-induced Effectors SW-B35, Target1-B8, Effector to Target Ratio 10:1) [%] | percent specific lysis by 51Cr release ([2]; VHP1-induced Effectors SW-B35, Target2-B35, Effector to Target Ratio 10:1) [%] | percent specific lysis by 51Cr release ([2]; VHP1-induced Effectors SW-B35, Target3-B27, Effector to Target Ratio 10:1) [%] | percent specific lysis by 51Cr release ([2]; VHP1-induced Effectors WW-B35, Target1-B8, Effector to Target Ratio 10:1) [%] | percent specific lysis by 51Cr release ([2]; VHP1-induced Effectors WW-B35, Target2-B35, Effector to Target Ratio 10:1) [%] | percent specific lysis by 51Cr release ([2]; VHP1-induced Effectors WW-B35, Target3-B27, Effector to Target Ratio 10:1) [%] | autocytotoxic responses against activated autologous T cell targets ([1]; short term cultures of PBMC from donors negative for B8 or B35 (trigger-)) |
| --- | --- | --- | --- | --- | --- | --- | --- | --- | --- | --- | --- | --- | --- | --- | --- | --- | --- | --- | --- |
| CC(C)C[C@H](N)C(=O)N[C@@H](CCC(=O)O)C(=O)N[C@@H](CC(=O)O)C(=O)N[C@@H](CCCNC(=N)N)C(=O)N[C@@H](CCCNC(=N)N)C(=O)N[C@@H](C)C(=O)N[C@@H](C)C(=O)N[C@H](C(=O)N[C@@H](CC(=O)O)C(=O)N[C@H](C(=O)N[C@H](C(=O)N[C@@H](CS)C(=O)N[C@@H](CCCNC(=N)N)C(=O)N[C@@H](C)C(=O)O)C(C)C)[C@@H](C)O)C(C)C [Control, NH2 LeuGluAspArgArgAlaAlaValAspThrValCysArgAlaCOOH] (H-LEDRRAAVDTVCRA-OH) | - (a positive result was scored above 20% specific lysis) | - (a positive result was scored above 20% specific lysis) | - (a positive result was scored above 20% specific lysis) | - (a positive result was scored above 20% specific lysis) | - (a positive result was scored above 20% specific lysis) | - (a positive result was scored above 20% specific lysis) | - (a positive result was scored above 20% specific lysis) | - (a positive result was scored above 20% specific lysis) | did not produce significant levels | – | – | – | – | – | – | – | – | – | – |
| CC(C)[C@H](NC(=O)[C@H](CCCNC(=N)N)NC(=O)[C@H](CCCNC(=N)N)NC(=O)[C@H](CCCCN)NC(=O)[C@H](C)NC(=O)[C@H](CCCCN)NC(=O)[C@@H](N)[C@@H](C)O)C(=O)N[C@H](C(=O)N[C@@H](CCC(=O)O)C(=O)N[C@@H](CCCNC(=N)N)C(=O)N[C@@H](CCC(=O)O)C(=O)N[C@@H](CCCCN)C(=O)N[C@@H](CCCNC(=N)N)C(=O)O)C(C)C [VHP1, NH2 ThrLysAlaLysArgArgValValGluArgGluLysArgCOOH] (H-TKAKRRVVEREKR-OH) | + (a positive result was scored above 20% specific lysis) | + (a positive result was scored above 20% specific lysis) | - (a positive result was scored above 20% specific lysis) | - (a positive result was scored above 20% specific lysis) | - (a positive result was scored above 20% specific lysis) | + (a positive result was scored above 20% specific lysis) | + (a positive result was scored above 20% specific lysis) | - (a positive result was scored above 20% specific lysis) | significant autocytoxic responses | 30 | 30 | 7 | 9 | 10 | 2 | 30 | 32 | 14 | did not produce significant levels |
